Experimental data as given in US20140309244A1, “NOVEL MICROBIOCIDES” (SYNGENTA PARTICIPATIONS AG, priority 2010, published 2014).

What was measured:
[1] = system: Mycosphaerella arachidis (Cercospora arachidicola); experiment: Mycosphaerella arachidis (Cercospora arachidicola) / liquid culture (early leaf spot); assay type: cell-based; conditions: PDB potato dextrose broth, 96-well plate, 24° C., 4-5 days after application, read-out: control of Mycosphaerella arachidis (inhibition of growth, photometric)
[2] = system: Botryotinia fuckeliana (Botrytis cinerea); experiment: Botryotinia fuckeliana (Botrytis cinerea) / liquid culture (gray mould); assay type: cell-based; conditions: Vogels broth, 96-well plate, 24° C., 3-4 days after application, read-out: control of Botryotinia fuckeliana (inhibition of growth, photometric)
[3] = system: Mycosphaerella graminicola (Septoria tritici); experiment: Mycosphaerella graminicola (Septoria tritici) / liquid culture (Septoria blotch); assay type: cell-based; conditions: Zymoseptoria tritici, PDB potato dextrose broth, 96-well plate, 24° C., 4-5 days after application, read-out: control of Mycosphaerella graminicola (inhibition of growth, photometric)
[4] = system: Phaeosphaeria nodorum (Septoria nodorum); experiment: Phaeosphaeria nodorum (Septoria nodorum) / wheat / leaf disc preventative (glume blotch); assay type: in vivo; conditions: Parastagonospora nodorum, foliar, wheat cv Kanzler leaf segments, inoculated 2 days after application, assessed 5-7 days after application, read-out: control of Phaeosphaeria nodorum (percent disease control compared to untreated)
Gaeumannomyces graminis = Gaeumannomyces graminis / liquid culture (take-all of cereals); assay type: cell-based; conditions: liquid culture of mycelial fragments, PDB potato dextrose broth, 96-well plate, 24° C., 4-5 days after application, read-out: control of Gaeumannomyces graminis (inhibition of growth, photometric)
[5] = system: Monographella nivalis (Microdochium nivale); experiment: Monographella nivalis (Microdochium nivale) / liquid culture (foot rot cereals); assay type: cell-based; conditions: PDB potato dextrose broth, 96-well plate, 24° C., 4-5 days after application, read-out: control of Monographella nivalis (inhibition of growth, photometric)
Method: Monographella nivalis (Microdochium nivale)/Liquid Culture (Foot Rot Cereals): Conidia of the fungus from cryogenic storage were directly mixed into nutrient broth (PDB potato dextrose broth). After placing a DMSO solution of test compound into a 96-well microtiter plate at an application rate of 200 ppm, the nutrient broth containing the fungal spores was added. The test plates were incubated at 24° C. and the inhibition of growth was determined photometrically 4-5 days after application. […].103

[6] = system: Glomerella lagenarium (Colletotrichum lagenarium); experiment: Glomerella lagenarium (Colletotrichum lagenarium) / liquid culture (anthracnose); assay type: cell-based; conditions: Colletotrichum orbiculare, PDB potato dextrose broth, 96-well plate, 24° C., 3-4 days after application, read-out: control of Glomerella lagenarium (inhibition of growth, photometric)
Pyrenophora teres = Pyrenophora teres / barley / leaf disc preventative (net blotch); assay type: in vivo; conditions: foliar, barley cv Hasso leaf segments, inoculated two days after application, assessed 5-7 days after application, read-out: control of Pyrenophora teres (disease control compared to untreated)

SMILES	inhibition at 200 ppm [1]	inhibition at 200 ppm [2]	inhibition at 200 ppm [3]	further results
CO/N=C(\C)c1cccc(CCCO/N=C(\C)c2nc(OC)cc(OC)n2)n1 [P.66]	≥ 80%	≥ 80%	–	–
CO/N=C(\C)c1cccc(CCCO/N=C(\C)c2cccc(-c3ccccc3)n2)n1 [P.33]	≥ 80%	≥ 80%	≥ 80%	–
CO/N=C(\C)c1cccc(CCCO/N=C2\CCCc3cnc(C)nc32)n1 [P.60, 2-Methyl-6,7-dihydro-5H-quinazolin-8-one O-[3-(6-(1-((E)-methoxyimino)-ethyl)-pyridin-2-yl)-propyl]-oxime]	≥ 80%	–	–	–
CO/N=C(\C)c1cccc(CCCO/N=C(\C)c2cccc(CCCO)n2)n1 [P.77]	≥ 80%	≥ 80%	≥ 80%	–
CO/N=C(\C)c1cccc(CCCO/N=C(\C)c2cccc(C#N)n2)n1 [P.50]	≥ 80%	≥ 80%	≥ 80%	–
CO/N=C(\C)c1cccc(CCCO/N=C2\CCCc3ccc(C)nc32)n1 [P.57]	≥ 80%	≥ 80%	≥ 80%	pest or weed control at 200 ppm [4]: ≥ 80%; inhibition at 200 ppm (Gaeumannomyces graminis): ≥ 80%; inhibition at 200 ppm [5]: ≥ 80%; inhibition at 200 ppm [6]: ≥ 80%
CO/N=C(\C)c1cccc(CCCON=C(CCN(C)C)c2cccc(Br)n2)n1 [P.108]	≥ 80%	–	–	–
CO/N=C(\C)c1cccc(CCCO/N=C(\C)c2cc(C#N)ccn2)n1 [P.37]	–	–	–	inhibition at 200 ppm (Gaeumannomyces graminis): ≥ 80%
CO/N=C(\C)c1cccc(CCCO/N=C2\CCCc3cncnc32)n1 [P.65]	–	≥ 80%	–	–
CO/N=C(\C)c1cccc(CCCO/N=C(\C)c2cccc(-c3cc(C)ccc3C)n2)n1 [P.15]	≥ 80%	≥ 80%	≥ 80%	pest or weed control at 200 ppm (Pyrenophora teres): ≥ 80%
CO/N=C(\C)c1cccc(CCCO/N=C/c2cccc(C)n2)n1 [P.38]	≥ 80%	≥ 80%	≥ 80%	inhibition at 200 ppm [5]: ≥ 80%
CO/N=C(\C)c1cccc(CCCO/N=C2\CCCc3cnc(-c4cccc(C)n4)nc32)n1 [P.64]	–	≥ 80%	–	–
CC/C(=N\OCCCc1cccc(/C(C)=N/OC)n1)c1ccccn1 [P.54]	–	–	–	inhibition at 200 ppm (Gaeumannomyces graminis): ≥ 80%
CO/N=C(\C)c1cccc(CCCO/N=C/c2cccc(Oc3ccccc3)n2)n1 [P.39]	≥ 80%	≥ 80%	≥ 80%	–
CO/N=C(\C)c1cccc(CCCO/N=C(\C)c2cccc(C(OC)OC)n2)n1 [P.29]	≥ 80%	≥ 80%	≥ 80%	–
CO/N=C(\C)c1cccc(CCCON=C(C)c2ccnc(-c3cccc(C)n3)n2)n1 (single isomer, unassigned) [P.63B]	–	≥ 80%	–	–
CO/N=C(\C)c1cccc(CCCO/N=C(\c2ccccc2)c2nc(OC)cc(OC)n2)n1 [P.68]	≥ 80%	–	≥ 80%	–
CO/N=C(\C)c1cccc(CCCO/N=C(\c2ccccc2)c2ccccn2)n1 [P.53]	–	–	–	inhibition at 200 ppm (Gaeumannomyces graminis): ≥ 80%
CO/N=C(\C)c1cccc(CCCO/N=C2\CCCc3cnc(-c4ccccc4)nc32)n1 [P.61, 2-Phenyl-6,7-dihydro-5H-quinazolin-8-one O-[3-(6-(1-((E)-methoxyimino)-ethyl)-pyridin-2-yl)-propyl]-oxime]	≥ 80%	≥ 80%	≥ 80%	pest or weed control at 200 ppm [4]: ≥ 80%; inhibition at 200 ppm (Gaeumannomyces graminis): ≥ 80%
C#Cc1cccc(/C(C)=N/OCCCc2cccc(/C(C)=N/OC)n2)n1 [P.18]	≥ 80%	≥ 80%	–	–
CO/N=C(\C)c1cccc(CCCO/N=C/c2nc(C)ccc2O)n1 [P.35]	≥ 80%	≥ 80%	≥ 80%	inhibition at 200 ppm (Gaeumannomyces graminis): ≥ 80%; inhibition at 200 ppm [5]: ≥ 80%
CO/N=C(\C)c1cccc(C(CCO/N=C(\C)c2cccc(C)n2)=C(Cl)Cl)n1 [P.13]	≥ 80%	–	≥ 80%	pest or weed control at 200 ppm (Pyrenophora teres): ≥ 80%; pest or weed control at 200 ppm [4]: ≥ 80%; inhibition at 200 ppm (Gaeumannomyces graminis): ≥ 80%
CO/N=C/c1cccc(CCCO/N=C(\C)c2cccc(C)n2)n1 [P.21]	–	≥ 80%	–	–

SMILES	inhibition at 200 ppm [1]	inhibition at 200 ppm [2]	inhibition at 200 ppm [3]	further results
CO/N=C(\C)c1cccc(CCCO/N=C(\C)c2ccc3ccccc3n2)n1 [P.34]	–	≥ 80%	≥ 80%	–
CO/N=C(\C)c1cccc(CCCO/N=C(\C)c2nc(C(F)(F)F)ccc2C(=O)OC)n1 [P.46]	≥ 80%	≥ 80%	≥ 80%	pest or weed control at 200 ppm [4]: ≥ 80%; inhibition at 200 ppm (Gaeumannomyces graminis): ≥ 80%
C=CCOc1ccc(C)nc1/C=N/OCCCc1cccc(/C(C)=N/OC)n1 [P.49]	≥ 80%	–	–	–
C/C(=N\OCCCc1cccc(/C(C)=N/O)n1)c1cccc(C)n1 [P.11]	–	≥ 80%	≥ 80%	–
CO/N=C(\C)c1cccc(CCCO/N=C2\COCc3c2nc2ccccc2c3C)n1 [P.89]	≥ 80%	≥ 80%	≥ 80%	–
CO/N=C(\C)c1cccc(CCCO/N=C(\C)c2cccc(-c3ccccc3O)n2)n1 [P.16]	–	–	≥ 80%	–
CO/N=C(\C)c1cccc(CCCO/N=C(\C)c2cc(C(C)(C)C)ccn2)n1 [P.45]	≥ 80%	≥ 80%	≥ 80%	–
CO/N=C(\C)c1cccc(CCCO/N=C(\C)c2cccc(C3CC3)n2)n1 [P.20]	≥ 80%	≥ 80%	≥ 80%	pest or weed control at 200 ppm (Pyrenophora teres): ≥ 80%; pest or weed control at 200 ppm [4]: ≥ 80%
CO/N=C(\C)c1cccc(CCCO/N=C(\C)c2cc(C)c3ccccc3n2)n1 [P.71]	–	≥ 80%	–	–
CO/N=C(\C)c1cccc(CCCO/N=C2\CCCc3c2nc2cnccc2c3C)n1 [P.80]	≥ 80%	≥ 80%	≥ 80%	inhibition at 200 ppm [5]: ≥ 80%
CO/N=C(\C)c1cccc(CCCO/N=C(\C)c2ccccn2)n1 [P.17]	–	≥ 80%	–	–
CO/N=C(\C)c1cccc(CCCO/N=C(\C)c2cccc(C#CC(C)(C)C)n2)n1 [P.79]	≥ 80%	≥ 80%	–	–
CO/N=C(\C)c1cccc(CCCON=C(C)c2ccnc(-c3cccc(C)n3)n2)n1 (single isomer, unassigned) [P.63A]	–	–	≥ 80%	pest or weed control at 200 ppm [4]: ≥ 80%; inhibition at 200 ppm [6]: ≥ 80%
CO/N=C(\C)c1cccc(CCCO/N=C(\C)c2cccc(CCCOCc3ccccc3)n2)n1 [P.75]	≥ 80%	≥ 80%	≥ 80%	–
CO/N=C(\C)c1cccc(CCCO/N=C2\CCCc3c2nc2ccccc2c3-c2ccccc2)n1 [P.99]	≥ 80%	≥ 80%	≥ 80%	inhibition at 200 ppm [5]: ≥ 80%; inhibition at 200 ppm [6]: ≥ 80%
CO/N=C(\C)c1cccc(CCCON=C(c2ccc(-n3cccc3)c(C)c2)c2ccccn2)n1 [P.107]	≥ 80%	–	–	–
CCOC(=O)c1cc(C)cc(/C(C)=N/OCCCc2cccc(/C(C)=N/OC)n2)n1 [P.47]	≥ 80%	≥ 80%	≥ 80%	–
CO/N=C(\C)c1cccc(CCCO/N=C2\CCCc3c2nc2c(C)cccc2c3C)n1 [P.90]	≥ 80%	≥ 80%	≥ 80%	inhibition at 200 ppm [6]: ≥ 80%
CO/N=C(\C)c1cccc(CCCO/N=C(\C)c2cccc(C#CCO)n2)n1 [P.78]	≥ 80%	–	≥ 80%	inhibition at 200 ppm [5]: ≥ 80%
C=C(CCO/N=C(\C)c1cccc(C)n1)c1cccc(/C(C)=N/OC)n1 [P.05, (E)-1-(6-{1-methylene-3-[1-(6-methyl-pyridin-2-yl)-eth-(E)-ylideneaminooxy]-propyl}-pyridin-2-yl)-ethanone O-methyl-oxime]	–	–	≥ 80%	inhibition at 200 ppm [5]: ≥ 80%
CO/N=C(\C)c1cccc(CCCON=C(CC#N)c2ccccn2)n1 [P.105]	–	–	–	inhibition at 200 ppm (Gaeumannomyces graminis): ≥ 80%
CCCCc1c2c(nc3ccc(Cl)cc13)/C(=N/OCCCc1cccc(/C(C)=N/OC)n1)CCC2 [P.85]	–	≥ 80%	≥ 80%	–
CCOc1cc(OCC)nc(/C(C)=N/OCCCc2cccc(/C(C)=N/OC)n2)n1 [P.67]	≥ 80%	≥ 80%	≥ 80%	–
